Assay results as given in patent US10034915B2, “Small heat shock proteins and active fragments thereof as a therapy for inflammation and ischemia” (The Board of Trustees of the Leland Stanford Junior …, priority 2011, dated 2018).
Entries after “also recorded” stand apart in the source; their conditions may differ.

Assays:
EAE mice [1] = experiment: EAE in 129Sv WT mice immunized with MOG35-55/CFA, clinical scoring; format: in vivo, mouse; details: for EAE clinical scores over the course of the whole experiment (area under the curve): 10 μg sHSP protein IP every other day from peak of disease; for EAE clinical scores over the course of the whole experiment (area under the curve) / clinical paralysis / EAE clinical scores: vs PBS; for clinical paralysis / EAE clinical scores: 10 μg sHSP protein IP every other day starting at the peak of disease; for therapeutic efficacy of peptide in EAE (clinical scores): peptide every other day from peak of disease (10 μg, or 1 μg equimolar to 10 μg protein)
Method: To investigate if the therapeutic efficacy of HSPB5 is a common feature of the whole family of small heat shock proteins, we expressed recombinant HSPB1, HSPB4, and HSPB5. We then treated EAE mice every other day starting at the peak of disease, when clinical paralysis is apparent, with an intraperitoneal (IP) administration of 10 μg of either HSPB1, HSPB4, HSPB5, or PBS as the vehicle control. […] Treating mice in vivo with HSPB1, HSPB4, or HSPB5 led to a reduction in the production of pro-inflammatory cytokines by MOG stimulated splenocytes taken from MOG immunized mice (FIG. 1c). Improvement of the clinical score was dependent on continued dosing of the sHSP. After dosing was stopped, symptoms returned, and paralysis worsened after 96 hours.
Therapeutic Peptides from HSPB5 in EAE. […] We made a series of overlapping, 15-mer peptide fragments of HSPB5 and treated mice at the peak of disease with 10 μg of each peptide every other day, using HSPB5 as a positive control and PBS as a negative control.
(§1) EAE induction and scoring. Mice were immunized subcutaneously with 100 μL of myelin oligodendrocyte glycoprotein (MOG) peptide 35-55 (2 mg/mL) and Complete Freund's adjuvant (CFA) (4 mg/mL) on Day 0. […] Mice were randomized at the peak of disease into the treatment groups where they received 10 ug/200 μL of sHSP, 1 μg/200 uL of sHSP peptide, or 200 μL of PBS (vehicle) every other day. Mice were scored every day on a clinical scoring system: 0, healthy mouse; 1, limp tail; 2, weak hindlimbs; 3, complete hindlimb paralysis; 4, weak forelimbs and paralyzed hindlimbs; 5, dead.

[2] = tested on: pro-inflammatory cytokines of MOG stimulated splenocytes; experiment: Peripheral immune cell activation: cytokine production by MOG stimulated splenocytes of treated MOG immunized mice (ELISA); parameters: species or system mouse; details: mice treated in vivo; splenocytes from MOG immunized mice
Method: Peripheral immune cell activation and cytokine analysis. Spleens and lymph nodes were isolated from mice 9 days after immunization with MOG35-55 and CFA. Spleens were mechanically disrupted to isolate single cell splencytes suspension. Cells were cultured in flat bottomed, 96-well plates in media (RPMI 1640 supplemented with […] L-glutamine, 1 mM sodium pyruvate, 0.1 mM non-essential amino acids, 100 U/mL penicillin, 0.1 mg/mL streptomycin, 0.5 uM 2-mercaptoethanol, and 10% fetal calf serum). Cells were stimulated with MOG35-55 (5 ug/mL, 10 ug/mL, and 20 ug/mL). For all activation assays, splenocytes were pooled from three mice per group and triplicate wells were plated. Supernatants of cells were collected at the time of peak production for each cytokine (48 hrs: IL-2, IL-12p40, IL-6; 72 hrs: TNFα and IFNγ; 96 hrs: IL-17; 120 hrs: IL-10). Cytokines were measured in the supernatants using anti-mouse OPTEIA ELISA kits (BD Pharmingen for IFNγ, IL-10, IL-2, IL-6, and IL-12p40; R&D Systems for IL-17 and TNFα).

mice with EAE = experiment: EAE in C57BL/6J mice (MOG35-55/CFA, pertussis toxin), neurological impairment scoring; format: in vivo, mouse; details: intraperitoneal 10-50 μg every other day starting at the peak of disease
Method: It was tested if the chaperone function of residues 73-92 of HspB5 were capable of reducing the symptoms of experimental allergic encephalomyelist (EAE), by inducing EAE in 9-week old female C57BL/6J by immunized subcutaneously with an emulsion containing 200 μg myelin oligodendrocyte glycoprotein 35-55 (MOG35-55; […] (SEQ ID NO:24)) in saline and an equal volume of complete Freund's adjuvant. Intraperitoneal injection of pertussis toxin at 0 and 48 h post-immunization results in paralysis beginning at day 12.

HSPB5−/− EAE mice = experiment: EAE in 129Sv HSPB5−/− mice immunized with MOG35-55/CFA; format: in vivo, mouse
Method: Efficacy of HSPB5 73-92 in EAE in HSPB5 deficient mice. We tested whether HSPB5 73-92 alone was sufficient to rescue EAE in alpha B crystallin deficient (HSPB5−/−) mice.
as §1, with “Mice were randomized at the peak of disease into the treatment groups where they received 10 ug/200 μL of sHSP, 1 μg/200 uL of sHSP peptide, or 200 μL of PBS (vehicle) every other day.” left out

EAE mice [3] = experiment: EAE in 129Sv WT mice immunized with MOG35-55/CFA, clinical scoring; format: in vivo, mouse; details: prevention paradigm
[4] = tested on: partially denatured proteins; details: in vitro, literature; cited from earlier work

HSP27 [HSPB1]
EAE clinical scores over the course of the whole experiment (area under the curve) (EAE mice [1]): significantly improved
clinical paralysis / EAE clinical scores (EAE mice [1]): significantly ameliorated clinical paralysis; also recorded: therapeutic
production of pro-inflammatory cytokines by MOG stimulated splenocytes [2]: reduction
clinical paralysis / clinical scores of mice with EAE (mice with EAE): significant reduction of clinical paralysis

DRWRVSLDVNHFAPDELTVK [HSPB1 73-92]
therapeutic efficacy of peptide in EAE (clinical scores) (EAE mice [1]): therapeutic in EAE
therapeutic efficacy of peptide in EAE (clinical scores) (EAE mice [1]; listed as HSPB1 73-93): as therapeutic as full length proteins
production of pro-inflammatory cytokines by MOG stimulated splenocytes [2]: decrease peripheral immune activation

αA-crystallin [HSPB4]
EAE clinical scores over the course of the whole experiment (area under the curve) (EAE mice [1]): significantly improved
clinical paralysis / EAE clinical scores (EAE mice [1]): significantly ameliorated clinical paralysis; also recorded: therapeutic
production of pro-inflammatory cytokines by MOG stimulated splenocytes [2]: reduction
clinical paralysis / clinical scores of mice with EAE (mice with EAE): significant reduction of clinical paralysis

DRFSVNLDVKHFSPEELKVK [HSPB5 73-92]
therapeutic efficacy of peptide in EAE (clinical scores) (EAE mice [1]): comparably therapeutic; also recorded: as therapeutic as HSPB5 71-85
production of pro-inflammatory cytokines by MOG stimulated splenocytes [2]: decrease peripheral immune activation
disease scores (HSPB5−/− EAE mice; 10 ug peptide every other day from peak of disease): lower disease scores; also recorded: sufficient to ameliorate disease
incidence of disease, Day 11 (HSPB5−/− EAE mice; treatment from Day 0): 0%
incidence of disease, Day 12 (HSPB5−/− EAE mice; treatment from Day 0): 0%
incidence of disease, Day 13 (HSPB5−/− EAE mice; treatment from Day 0): 11%
incidence of disease, Day 14 (HSPB5−/− EAE mice; treatment from Day 0): 33%
incidence of disease, Day 15 (HSPB5−/− EAE mice; treatment from Day 0): 33%
incidence of disease, Day 16 (HSPB5−/− EAE mice; treatment from Day 0): 33%
incidence of disease, Day 17 (HSPB5−/− EAE mice; treatment from Day 0): 66%
incidence of disease, Day 18 (HSPB5−/− EAE mice; treatment from Day 0): 66%
EAE clinical scores (HSPB5−/− EAE mice; treatment from Day 0, vs PBS): ameliorated EAE
onset of disease (HSPB5−/− EAE mice; treatment from Day 0, vs PBS): delayed onset of disease
EAE clinical scores (HSPB5−/− EAE mice; treatment from Day 0, vs PBS, listed as B5 73-92): lower EAE clinical scores
disease severity (EAE mice [3]; 10 μg peptide every day from Day 0): ameliorated EAE
disease severity (EAE mice [3]; 10 μg peptide every day from Day 0, listed as B5 73-92): lower disease severity
onset of disease (EAE mice [3]; treatment from Day 0): delayed onset of disease
molecular chaperone activity [4]: important for molecular chaperone activity

DKFVIFLDVKHFSPEDLTVK [HSPB4 73-92]
therapeutic efficacy of peptide in EAE (clinical scores) (EAE mice [1]): therapeutic in EAE
therapeutic efficacy of peptide in EAE (clinical scores) (EAE mice [1]; listed as HSPB4 73-93): as therapeutic as full length proteins
production of pro-inflammatory cytokines by MOG stimulated splenocytes [2]: decrease peripheral immune activation

B1: Arg120Gly: naturally occurring mutated HSPB5, arginine to glycine at amino acid position 120 (protein, UniProt P02511 1-175, looked up, variant R120G)
Alpha-crystallin B chain: MDIAIHHPWIRRPFFPFHSPSRLFDQFFGEHLLESDLFPTSTSLSPFYLRPPSFLRAPSWFDTGLSEMRLEKDRFSVNLDVKHFSPEELKVKVLGDVIEVHGKHEERQDEHGFISREFHGKYRIPADVDPLTITSSLSSDGVLTVNGPRKQVSGPERTIPITREEKPAVTAAPKK
clinical paralysis / EAE clinical scores (EAE mice [1]): did improve clinical scores; also recorded: ameliorated EAE just as well as HSPB5
production of pro-inflammatory cytokines by MOG stimulated splenocytes [2]: reduction; also recorded: suppressed
molecular chaperone activity [4]: partial loss of molecular chaperone activity
